{"source": "paper PMC8571282", "about": "(Nature Communications, 2021)", "key": {"SARS-CoV-2 WA1/2020": {"test_system": "SARS-CoV-2 WA1/2020", "format": "in vivo, ferret (Mustela putorius furo)"}, "[1]": {"test_system": "SARS-CoV-2 VOC γ (BZ/2021)", "format": "in vivo, ferret (Mustela putorius furo)"}, "[2]": {"details": "Fig 4b, […], 10 mg/kg b.i.d., Time 0.0"}, "[3]": {"details": "Fig 4b, […], 10 mg/kg b.i.d., Time 0.5"}, "[4]": {"details": "Fig 4b, […], 10 mg/kg b.i.d., Time 1.0"}, "[5]": {"details": "Fig 4b, […], 10 mg/kg b.i.d., Time 1.5"}, "[6]": {"details": "Fig 4b, […], 10 mg/kg b.i.d., Time 2.0"}, "[7]": {"details": "Fig 4b, […], 10 mg/kg b.i.d., Time 2.5"}, "[8]": {"details": "Fig 4b, […], 10 mg/kg b.i.d., Time 3.0"}, "[9]": {"details": "Fig 4b, […], 10 mg/kg b.i.d., Time 3.5"}, "[10]": {"details": "Fig 4b, […], 10 mg/kg b.i.d., Time 4.0"}, "[11]": {"details": "Fig 4b, […], 10 mg/kg b.i.d., all 9 time points"}, "[12]": {"details": "headed Fig 3c, […], 10 mg/kg b.i.d., Time 0"}, "[13]": {"details": "headed Fig 3c, […], 10 mg/kg b.i.d., Time 1"}, "[14]": {"details": "headed Fig 3c, […], 10 mg/kg b.i.d., Time 2"}, "[15]": {"details": "headed Fig 3c, […], 10 mg/kg b.i.d., Time 3"}, "[16]": {"details": "headed Fig 3c, […], 10 mg/kg b.i.d., Time 4"}, "[17]": {"details": "headed Fig 3c, […], 10 mg/kg b.i.d., all 5 time points"}}, "note": "“And” between values parts separate entries of the source, which are not always exact repeats. Identical values can stand only once. Like-named read-outs stand apart in the source and are kept apart here.", "data": [{"compound": "CC(C)C(=O)OCC1OC(C#N)(c2ccc3c(N)ncnn23)C(OC(=O)C(C)C)C1OC(=O)C(C)C", "note": "(centres unmarked) [GS-621763]", "values": [{"measurement": "Transform of Nasal turbinate titers, Mean (treated)", "setting": "SARS-CoV-2 WA1/2020; Fig 2f, 20 mg kg-1 b.i.d., sample size 4", "result": 2.037}, {"measurement": "Transform of Nasal turbinate titers, Difference between means (C - A) ± SEM", "setting": "SARS-CoV-2 WA1/2020; Fig 2f, treated minus Vehicle, 20 mg kg-1 b.i.d., unpaired t test", "result": "-2.239 ± 0.3026"}, {"measurement": "Transform of Small Intestine copies/gram, Mean (treated)", "setting": "SARS-CoV-2 WA1/2020; Fig 2i, 20 mg kg-1 b.i.d., sample size 4", "result": 0}, {"measurement": "Transform of Small Intestine copies/gram, Difference between means (C - A) ± SEM", "setting": "SARS-CoV-2 WA1/2020; Fig 2i, treated minus Vehicle, 20 mg kg-1 b.i.d., unpaired t test", "result": "-1.018 ± 1.018"}, {"measurement": "Transform of Large Intestine copies/gram, Mean (treated)", "setting": "SARS-CoV-2 WA1/2020; Fig 2j, 20 mg kg-1 b.i.d., sample size 4", "result": 0}, {"measurement": "Transform of Large Intestine copies/gram, Difference between means (C - A) ± SEM", "setting": "SARS-CoV-2 WA1/2020; Fig 2j, treated minus Vehicle, 20 mg kg-1 b.i.d., unpaired t test", "result": "-1.911 ± 1.104"}, {"measurement": "Transform of Nasal Turbinate RNA copies/g, Mean (treated)", "setting": "SARS-CoV-2 WA1/2020; Fig 2h, 20 mg kg-1 b.i.d., sample size 4", "result": 3.868}, {"measurement": "Transform of Nasal Turbinate RNA copies/g, Difference between means (C - A) ± SEM", "setting": "SARS-CoV-2 WA1/2020; Fig 2h, treated minus Vehicle, 20 mg kg-1 b.i.d., unpaired t test", "result": "-2.950 ± 0.3528"}, {"measurement": "SARS-CoV-2 RNA copies in lungs", "setting": "SARS-CoV-2 WA1/2020; in vivo", "result": "not detected"}, {"measurement": "SARS-CoV-2 infectious particles in lungs", "setting": "SARS-CoV-2 WA1/2020; in vivo", "result": 109, "unit": "pfu"}, {"measurement": "Virus titers from nasal lavages", "setting": "SARS-CoV-2 WA1/2020; in vivo", "result": 9, "unit": "pfu"}, {"measurement": "shed SARS-CoV-2 load in nasal lavages", "setting": "SARS-CoV-2 WA1/2020; in vivo", "result": "transiently detectable in lavages of only one ferret"}, {"measurement": "viral RNA copy numbers in turbinates, difference between vehicle and treatment groups", "setting": "SARS-CoV-2 WA1/2020; in vivo", "result": "three"}, {"measurement": "virus in nasal turbinates 4 days after infection", "setting": "SARS-CoV-2 WA1/2020; in vivo", "result": "undetectable"}, {"measurement": "Nasal lavage titer, Mean Diff. Vehicle - GS-621763", "setting": "[1]; [2]", "result": 0}, {"measurement": "Nasal lavage titer, group mean (Mean 2; Transform of Brazil - Nasal Lavage Titer)", "setting": "[1]; [2]", "result": 0.699}, {"measurement": "Nasal lavage titer, Mean Diff. Vehicle - GS-621763", "setting": "[1]; [3]", "result": 0}, {"measurement": "Nasal lavage titer, group mean (Mean 2; Transform of Brazil - Nasal Lavage Titer)", "setting": "[1]; [3]", "result": 0.699}, {"measurement": "Nasal lavage titer, Mean Diff. Vehicle - GS-621763", "setting": "[1]; [4]", "result": 0}, {"measurement": "Nasal lavage titer, group mean (Mean 2; Transform of Brazil - Nasal Lavage Titer)", "setting": "[1]; [4]", "result": 0.699}, {"measurement": "Nasal lavage titer, Mean Diff. Vehicle - GS-621763", "setting": "[1]; [5]", "result": 0.7768}, {"measurement": "Nasal lavage titer, group mean (Mean 2; Transform of Brazil - Nasal Lavage Titer)", "setting": "[1]; [5]", "result": 0.699}, {"measurement": "Nasal lavage titer, Mean Diff. Vehicle - GS-621763", "setting": "[1]; [6]", "result": 1.969}, {"measurement": "Nasal lavage titer, group mean (Mean 2; Transform of Brazil - Nasal Lavage Titer)", "setting": "[1]; [6]", "result": 0.8495}, {"measurement": "Nasal lavage titer, Mean Diff. Vehicle - GS-621763", "setting": "[1]; [7]", "result": 2.801}, {"measurement": "Nasal lavage titer, group mean (Mean 2; Transform of Brazil - Nasal Lavage Titer)", "setting": "[1]; [7]", "result": 0.7742}, {"measurement": "Nasal lavage titer, Mean Diff. Vehicle - GS-621763", "setting": "[1]; [8]", "result": 2.882}, {"measurement": "Nasal lavage titer, group mean (Mean 2; Transform of Brazil - Nasal Lavage Titer)", "setting": "[1]; [8]", "result": 0.7742}, {"measurement": "Nasal lavage titer, Mean Diff. Vehicle - GS-621763", "setting": "[1]; [9]", "result": 2.92}, {"measurement": "Nasal lavage titer, group mean (Mean 2; Transform of Brazil - Nasal Lavage Titer)", "setting": "[1]; [9]", "result": 0.699}, {"measurement": "Nasal lavage titer, Mean Diff. Vehicle - GS-621763", "setting": "[1]; [10]", "result": 2.821}, {"measurement": "Nasal lavage titer, group mean (Mean 2; Transform of Brazil - Nasal Lavage Titer)", "setting": "[1]; [10]", "result": 0.699}, {"measurement": "Nasal lavage titer, column mean of GS-621763 over all times", "setting": "[1]; [11]", "result": 0.7324}, {"measurement": "Nasal lavage titer, difference between column means (Vehicle - GS-621763)", "setting": "[1]; [11]", "result": 1.574}, {"measurement": "Nasal turbinate RNA, Mean Diff. Vehicle vs. GS-621763", "setting": "[1]; Fig 4e, […], 10 mg/kg b.i.d.", "result": 3.96}, {"measurement": "Nasal turbinate RNA, group mean of GS-621763-treated source animals (Transform of Brazil - Nasal Turbinate RNA)", "setting": "[1]; Fig 4e, […], 10 mg/kg b.i.d.", "result": 5.208}, {"measurement": "Turbinate titers, Mean Diff. Vehicle vs. GS-621763", "setting": "[1]; Fig 4d, […], 10 mg/kg b.i.d.", "result": 3.511}, {"measurement": "Turbinate titers, group mean of GS-621763-treated source animals (Transform of Brazil - Turbinate Titers)", "setting": "[1]; Fig 4d, […], 10 mg/kg b.i.d.", "result": 0.9542}, {"measurement": "Nasal lavage RNA, Mean Diff. Vehicle - GS-621763", "setting": "[1]; [12]", "result": 0}, {"measurement": "Nasal lavage RNA, group mean (Mean 2; Transform of Brazil - Nasal Lavage RNA)", "setting": "[1]; [12]", "result": 0}, {"measurement": "Nasal lavage RNA, Mean Diff. Vehicle - GS-621763", "setting": "[1]; [13]", "result": 0.6874}, {"measurement": "Nasal lavage RNA, group mean (Mean 2; Transform of Brazil - Nasal Lavage RNA)", "setting": "[1]; [13]", "result": 2.265}, {"measurement": "Nasal lavage RNA, Mean Diff. Vehicle - GS-621763", "setting": "[1]; [14]", "result": 3.062}, {"measurement": "Nasal lavage RNA, group mean (Mean 2; Transform of Brazil - Nasal Lavage RNA)", "setting": "[1]; [14]", "result": 2.426}, {"measurement": "Nasal lavage RNA, Mean Diff. Vehicle - GS-621763", "setting": "[1]; [15]", "result": 4.178}, {"measurement": "Nasal lavage RNA, group mean (Mean 2; Transform of Brazil - Nasal Lavage RNA)", "setting": "[1]; [15]", "result": 2.173}, {"measurement": "Nasal lavage RNA, Mean Diff. Vehicle - GS-621763", "setting": "[1]; [16]", "result": 3.536}, {"measurement": "Nasal lavage RNA, group mean (Mean 2; Transform of Brazil - Nasal Lavage RNA)", "setting": "[1]; [16]", "result": 2.653}, {"measurement": "Nasal lavage RNA, column mean of GS-621763 over all times", "setting": "[1]; [17]", "result": 1.903}, {"measurement": "Nasal lavage RNA, difference between column means (Vehicle - GS-621763)", "setting": "[1]; [17]", "result": 2.293}, {"measurement": "Infectious virus titer in nasal lavage (Fig 4B)", "setting": "[1]; in vivo, 10 mg/kg", "result": "5 pfu and 10 pfu"}, {"measurement": "SARS-CoV-2 RNA copies in lungs (Fig 4G)", "setting": "[1]; in vivo, 10 mg/kg", "result": "not detected"}, {"measurement": "lowering of viral RNA copies in nasal lavages and turbinates", "setting": "[1]; in vivo, po, 10 mg/kg", "result": "over three orders of magnitude"}]}]}
